# Results taken from US10933126B2, “Clostridium difficile immunogenic compositions and methods of use” (The Board of Regents of the University of Oklahoma, priority 2018, dated 2021).
# What was measured:
# [1] = system: PSII; design: species or system B6 mice; settings: mouse, in vivo
# [2] = system: C. difficile VPI 10463 spores; assay: C. difficile spore challenge assay in immunized B6 mice (body weight); type: in vivo; settings: 10^4 spores
# Description: Non-immunized age- and sex-matched naïve B6 mice were Cefoperazone-treated and then treated with vehicle only (a) or were infected with 10^4 live C. difficile spores (b). Some mice were administered PSII alone followed by a PSII booster one week later (c), or administered vehicle only followed by the PSII booster one week later (d), or administered α-GC alone followed by the PSII booster (e), or administered a PSII and α-GC combination followed by the PSII booster (f), or administered α-GC alone followed by vehicle (g). Animals were then treated with the antibiotic Cefoperazone prior to being infected with 10^4 live C. difficile spores. Graphs show the percent of original weight, which was obtained daily and for the duration indicated. Five mice were used for each group except for the naïve-infected and the PSII/α-GC groups (n=10). […] In the uninfected control group (a), zero counts were detected (limit of detection in assay=10^2).
# Immunizations: Mice were immunized s.c. in both flanks with a total of 15 μg or 50 μg PSII or PSII plus 4 μg α-GC, in a 200 μl total volume of sterile low-endotoxin PBS. The amount of α-GC administered has been determined in previous studies to exert a strong CD1d- and NKT-dependent effect on Ab responses. […]
# Animal weight was then measured daily. […]
compound,measurement,setting,value
"CCCCCCCCCCCCCCCCCCCCCCCCCC(=O)N[C@@H](CO[C@H]1O[C@H](CO)[C@H](O)[C@H](O)[C@H]1O)[C@H](O)[C@H](O)CCCCCCCCCCCCCC [α-GC, (2S,3S,4R)-1-O-(α-D-Galactosyl)-N-hexacosanoyl-2-amino-1,3,4-octadecanetriol]",Anti-PSII titers,[1],could not be detected
same,Body weight after C. difficile challenge,"[2]; α-GC alone, w/o a PSII booster (FIG. 6g)",did not protect against weight loss
same,Body weight after C. difficile challenge,[2]; α-GC followed one week later with PSII (FIG. 6e),no weight loss was observed
